According to patent US20100266696A1, “Organic Compounds” (priority 2007, published 2010):

Assays:
[1] = Laser light diffraction particle size analysis of high pressure homogenised glycopyrrolate suspension (Example 1); type: physicochemical; details: suspension in acetone after homogenisation at 950 bar, 48 passes; ultrasonication 60 W 480 s
Experimental: The suspension is then homogenised at a pressure drop of 950 bar, a reflux temperature of about 9-12.5° C., and a mixing/reflux vessel jacket temperature of 2° C. The piston pump stroke frequency is about 60, and the process is run for a total of 60 minutes, which is equivalent to a total of 48 passes or homogenisation cycles. Samples are also taken as in process control after 15 (12 passes) and 30 (24 passes) minutes, and analyzed along with the final product.
(§1) The crystallites appear to break into fairly regular, rectangularly shaped fragments of smaller size in the early stages of homogenization, which are subsequently comminuted and smoothed further. Particle size decreases further at an increasing number of homogenization cycles, after 24 passes the average particle size is around 1 μm already, and the particle edges are noticeably more rounded than initially or after only 12 passes. No significant changes are observed in particles isolated after 24 and 48 passes through the homogeniser.

[2] = BET specific surface area (adsorption analysis); type: physicochemical
Experimental: (§2) Particles still appear as rectangularly shaped fragments with smoothed edges and an average size around or slightly above 1 μm. The specific surface area of the dried suspension (analysed by adsorption analysis, BET surface measurement) is determined to be 4.0 m^2/g.
The specific surface area of the final product by BET analysis is determined to be 4.0 m2/g.

[3] = Scanning electron microscopy of glycopyrrolate materials (Example 1); type: physicochemical
From the text: as §1, §2

[4] = X-ray powder diffraction and DSC crystallinity; type: physicochemical; details: final product after spray drying
[5] = Aggregation/agglomeration tendency: jet-milled vs high pressure homogenised and dried (Example 4); type: physicochemical
From the text: The mill is equipped with 3 nozzles of 1.9 mm diameter. […] As a consequence, the material has to be co-milled with a force control agent such as magnesium stearate in order to obtain a freely flowable non-agglomerating micronised drug substance.

[6] = final product after spray drying; ultrasonication 60 W 480 s
Experimental: The spray dryer is operated at an outlet temperature of around 75-78° C., i.e., above the boiling point of neat acetone, in order to avoid solvent condensation in the spray tower. The inlet temperature is set to 100° C., and the experiment initiated by spraying pure solvent. The spray rate is set to a flow of 5 mL/min using a Büchi lab scale spray dryer, with the aspirator operated at 100%. The nitrogen flow rate is kept constant at 600-700 l/h. At these operating conditions, the homogenised suspension is sprayed, and a dry powder is collected in a cyclone followed by a cloth filter.
Once again ultrasonication at 60 W is applied for 480 seconds to break any loose aggregates in the product prior to starting the particle size distribution measurement.
The final product after spray drying is re-characterized after 25 days of storage at ambient conditions as well as at 4° C.

## C[N+]1(C)CCC(OC(=O)C(O)(c2ccccc2)C2CCCC2)C1.[Br-] (stereo not shown) [glycopyrrolate, 3-[(cyclopentyl-hydroxyphenylacetyl)oxy]-1,1-dimethyl-pyrrolidinium bromide]
[1]
  ×10 mean particle size: 0.6 μm
  ×50 mean particle size: 1.3 μm
  ×90 mean particle size: 3.1 μm
[2]; dried suspension
  specific surface area (BET): 4.0 m^2/g
[2]; final product
  specific surface area by BET analysis: 4.0 m2/g
[3]; after 24 passes of homogenisation
  average particle size: around 1 μm
[3]; after homogenisation step
  average size by scanning electron microscopy: below 5 μm
[3]; spray dried glycopyrrolate
  average size by SEM: ~1 μm
[4]
  crystallinity (XPRD and DSC) compared to coarse drug substance: no change in crystallinity
[5]; high pressure homogenised and subsequently dried material (Examples 1, 2 and 3)
  tendency to aggregate or agglomerate: no tendency to aggregate or agglomerate
[5]; micronised in fluid bed opposed jet mill
  tendency to aggregate and agglomerate: high tendency to aggregate and agglomerate
[6]
  mean particle size, ×50: 1.7 μm
  ×90 value: 3.6 μm
